Common to all, as to format: cell-based, human
Test [1] has as its system U251-MG cells. Put plainly: Cell viability / proliferation, Trypan blue exclusion, U251-MG. Particulars: DMEM/10% FBS, 100 nM peptide, 24, 48 and 72 h. How it is done:
(§1) Cell viability was tested in DMEM/10% FBS in the presence of 100 nM uPAcyclin or Ala peptides via a Trypan blue exclusion assay, as previously reported, using 4 × 10^4 U87-MG and U251-MG glioblastoma cells/sample followed for 24, 48 and 72 h.
(§2) To rule out the possibility that the effects of uPAcyclin and Ala peptides could be due to the inhibition of cell proliferation, cell growth in the presence of these peptides was monitored for 24, 48 and 72 h (Supporting Information, Figure S2). U87-MG and U251-MG cells were exposed to diluents or to serum in the presence of 100 nM uPAcyclin, [Ala^1]uPAcyclin, [Ala^4]uPAcyclin, [Ala^8]uPAcyclin and [Ala^2,Ala^5]uPAcyclin (for the peptide choice, see above), and cell viability was tested at the indicated times using Trypan blue (Figure S2A,B). Both cell lines proliferate in culture in the presence of serum (DMEM/10% FBS), but not in a serum-free medium (DMEM). The growth rates of the U87-MG and U251-MG glioblastoma cell lines were similar, regardless of the exposure to 100 nM of uPAcyclin, [Ala^1]uPAcyclin, [Ala^4]uPAcyclin and [Ala^8]uPAcyclin.
(§3) Figure S5. Cell Viability Assay.
(§4) Unaffected proliferation of U87-MG and U251-MG glioblastoma cells exposed to uPacyclin and selected Ala-peptides. 2x104 U87-MG (A) or U251-MG (B) were seeded in 12 well plates for 24 h in DMEM-10% FBS and serum-starved for 24 h. Then, cells were counted (0 h) and grown in DMEM (no serum) or DMEM-10% FBS, in the presence of 100 nM peptides for 24, 48 and 72 h. Histograms represent the average of two separate experiments undertaken in duplicate.
(§5) (1 picture or pasted object on this page, not shown here)

Test [2] relates to U251-MG cells. Put plainly: Vasculogenic mimicry (tube formation) assay, U251-MG on Geltrex. To be noted: 24 h. Here is the method:
(§6) The tube formation assay was performed as previously described by Franco et al., using 3 × 10^4 U87-MG and 1.5 × 10^4 U251 cells/sample in the absence or presence of specific effectors included at time 0. The evaluation of vascular-like structures, as the branching points number, was performed using the Inverted Microscope DMI Leica 6000 ([…], Milan, Italy) and assessed in 4/5 random fields using the ImageJ 1.52a Software.
(§7) Here, U87-MG cells were plated onto Geltrex^TM, and the formation of round vascular-type structures was assessed after 24 h (Figure 6A). […] If cells are pretreated with nanomolar concentrations of the indicated cyclic peptides for 40 min at 37 °C prior to the VM assay, the number of intersections decreases. For this assay, the peptides [Ala^2, Ala^5]uPAcyclin, [Ala^1]uPAcyclin [Ala^4]uPAcyclin and [Ala^8]uPAcyclin, in addition to the parent uPAcyclin, were selected based on previous considerations. In the histogram shown in Figure 6B, the number of intersections per field is reported for untreated or peptide-exposed samples. As a reference, the uPAcyclin is indeed able to reduce vessel formation by 40% at 1 nM and by 70% at 100 nM. […] [Ala^2,Ala^5]uPAcyclin and [Ala^8]uPAcyclin are able to reduce VM by 50% at 1 nM and by 70% at 100 nM, confirming that they are both efficient inhibitors of GBM functions supporting malignancy. The formation of VM was also monitored in U251-MG cells, which were seeded under the same conditions employed for U87-MG cells. Representative images, reported in Figure 7A, show the elongated structures obtained after 24 h in Geltrex^TM matrix and their reduction in the cells pre-exposed to uPAcyclin, [Ala^2,Ala^5]uPAcyclin and [Ala^8]uPAcyclin. As shown in the histogram reported in Figure 7B, the uPAcyclin is indeed able to reduce vessel formation by 50% at 1 nM and by 80% at 100 nM. […] It is of note that, unlike [Ala^2,Ala^5]uPAcyclin or [Ala^8]uPAcyclin, [Ala^1]uPAcyclin is ineffective, even if employed at 100 nM.
Figure 7 Inhibition of vasculogenic mimicry by U251-MG glioblastoma cells. (A) Representative images of U251-MG cells cultured in DMEM/10% FBS (no matrix) or seeded onto Geltrex^TM in multiwell-96 (1.5 × 10^4 cells/well). When specified, cells were pretreated with diluents (untreated) or with the indicated peptides at the indicated concentrations for 40 min at 37 °C prior to the VM assay. All images are taken after 24 h with the DMI Leica 6000 Inverted Microscope with 50× total magnification; scale bar: 100 μm. (B) The quantitation and expression of branching points (red arrows), is accomplished as reported in the legend of Figure 6 (*** p-value < 0.001).

Test [3] has as its system U87-MG cells. Put plainly: Cell viability / proliferation, Trypan blue exclusion, U87-MG. Particulars: DMEM/10% FBS, 100 nM peptide, 24, 48 and 72 h. How it is done: as §1, §2, §3, §4, §5
In test [4] the test system is U87-MG cells. To be noted: 24 h; for reduction of vessel formation (VM, branching points): U87-MG on Geltrex. Here is the method:
as §6, §7
Figure 6 Inhibition of vasculogenic mimicry by U87-MG glioblastoma cells. (A) Representative images of U87-MG cells cultured in DMEM/10% FBS (no matrix) or seeded onto Geltrex^TM in multiwell-96 (3 × 10^4 cells/well). When specified, cells were pre-treated with diluents (untreated) or with the indicated peptides at the indicated concentrations for 40 min at 37 °C prior to the VM assay. All images are taken after 24 h with the DMI Leica 6000 Inverted Microscope and 50× total magnification; scale bar: 100 μm. (B) The quantitation of branching points, defined as the intersection of at least three tubes (red arrows), was performed at 24 h either in control cells and cells exposed to the peptides and reported in the histogram (** p-value < 0.005; *** p-value < 0.001).

pIC50: −log10 of the molar value. Read-outs that look alike come from different tables or passages of the source. Positions of bridges follow the written chain, without caps; N, C: chain ends. Residues, ends and D or L forms follow the SMILES beside them.

With `CC(=O)N[C@@H](CCCCN)C(=O)N[C@@H](C)C(=O)N[C@H]1CCC(=O)NCCCC[C@@H](C(N)=O)NC(=O)[C@H](CC(C)C)NC(=O)[C@H](CCC(=O)O)NC(=O)[C@H](CCC(=O)O)NC(=O)[C@@H]2CCCN2C(=O)[C@H](C)NC(=O)[C@H](CO)NC1=O` [[Ala^2,Ala^5]uPAcyclin] (Ac-KAESAPEELK-NH2; lactam 3-10), the “growth rate / proliferation rate” value in the test on U251-MG cells [1] and with U87-MG cells [3] was “slight but not significant decrease” throughout. In the test on U251-MG cells [2], the “inhibition of VM compared to uPAcyclin (in words)” value is listed as “slightly more effective inhibitors”. In the test with U87-MG cells [4], this compound showed a negative logarithm of the IC50 (pIC50) of over 9.00. Besides, the “reduction of vessel formation (VM, branching points)” value (“reduction of vessel formation” for short) with U87-MG cells [4] (1 nM peptide) is on record as 50%; in the test on U87-MG cells [4] (100 nM peptide), 70%.

As to `CC(=O)N[C@@H](CCCCN)C(=O)N1CCC[C@H]1C(=O)N[C@H]1CCC(=O)NCCCC[C@@H](C(N)=O)NC(=O)[C@H](CC(C)C)NC(=O)[C@H](C)NC(=O)[C@H](CCC(=O)O)NC(=O)[C@@H]2CCCN2C(=O)[C@@H]2CCCN2C(=O)[C@H](CO)NC1=O` [[Ala^8]uPAcyclin] (Ac-KPESPPEALK-NH2; lactam 3-10), the “growth rate / proliferation rate” value with U251-MG cells [1] and in the test on U87-MG cells [3] was “similar” each time. Moreover, the “inhibition of VM compared to uPAcyclin (in words)” value in the test with U251-MG cells [2] is listed as “slightly more effective inhibitors”. The negative logarithm of the IC50 (pIC50) in the test on U87-MG cells [4] is over 9.00. Moreover, the figures for the “reduction of vessel formation” value in the test with U87-MG cells [4] (1 nM peptide) and in the test on U87-MG cells [4] (100 nM peptide) were 50% and 70%, respectively.

Regarding `CC(=O)N[C@@H](CCCCN)C(=O)N1CCC[C@H]1C(=O)N[C@H]1CCC(=O)NCCCC[C@@H](C(N)=O)NC(=O)[C@H](CC(C)C)NC(=O)[C@H](CCC(=O)O)NC(=O)[C@H](CCC(=O)O)NC(=O)[C@@H]2CCCN2C(=O)[C@@H]2CCCN2C(=O)[C@H](CO)NC1=O` [uPAcyclin] (Ac-KPESPPEELK-NH2; lactam 3-10), the “growth rate / proliferation rate” value in the test on U251-MG cells [1] and in the test on U87-MG cells [3] was “similar” throughout. Also, the “reduction of vessel formation” value with U251-MG cells [2] (1 nM peptide) was 50%; in the test on U251-MG cells [2] (100 nM peptide), 80%; in the test on U87-MG cells [4] (1 nM peptide), 40%; in the test with U87-MG cells [4] (100 nM peptide) it was 70%.

As usually defined, the pIC50 is the IC50 on a negative log10 scale, so that one unit is a factor of ten.

The values above are taken from PMC11853379, “Glioblastoma Cell Migration, Invasion and Vasculogenic Mimicry Downmodulated by Novel uPAcyclin Derivatives” (Cells, 2025).
